Patent publication US10583121B2, “Patch” (HISAMITSU PHARMACEUTICAL CO., INC., priority 2012, dated 2020)
Where a name gives a salt, the structure may show the parent alone.

Assay: Oral (sublingual) administration of 5 mg asenapine maleate, plasma AUC and adverse effects
Assay type: in vivo, healthy adult men
Procedure: Furthermore, in a case where the patch obtained in Example 1 was administered, the incidence proportion of adverse effects on the cardiovascular system in the AUC measurement test was 6%. Note that when 5 mg of asenapine maleate was orally administered (sublingual administration) to the healthy adult men (18 people), the average value of the area under plasma concentration-time curve of the free asenapine for a period between 10 minutes and 72 hours after the administration (AUC0.17-72) was 32,074 pg·hr/mL, the average value of the AUC0.17-72 of the N-desmethyl asenapine was 14,299 pg·hr/mL, and the incidence proportion of adverse effects on the cardiovascular system was 39%.

Structure (SMILES): CN1C[C@@H]2c3ccccc3Oc3ccc(Cl)cc3[C@H]2C1 (relative stereo) [asenapine maleate, trans-5-chloro-2-methyl-2,3,3a,12b-tetrahydro-1H-dibenz[2,3:6,7]oxepino[4,5-c]pyrrole]
- AUC0.17-72 of the free asenapine (10 minutes to 72 hours after administration): 32,074 pg·hr/mL
- incidence proportion of adverse effects on the cardiovascular system (healthy adult men (18 people)): 39%
